Measurements from US20170334899A1, “AMINO-SUBSTITUTED ISOTHIAZOLES” (Bayer Pharma Aktiengesellschaft, priority 2014, published 2017).
pIC50: −log10 of the molar value.

Assays:
HeLa = test: Proliferation assay (crystal violet), HeLa; assay type: cell-based; details: Homo sapiens, HeLa, 96 h, HeLa cells; 4 days incubation; crystal violet staining; read-out: IC50 inhibition of proliferation, HeLa
Method in brief: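 Crystal violet proliferation readout, 4-day compound incubation, 0.001–10 μM, final DMSO 0.5%. Zero-point plate stained at time of dosing set as 0%, untreated control as 100%; IC50 via 4-parameter fit.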

CDK2/CycE = target: T1, CDK2/CycE (Homo sapiens, UniProt P24941); test: CDK2/CycE kinase assay (TR-FRET); assay type: biochemical; details: avg, read-out: CDK2 avg (IC50 [mol/l])
T1 construct: GST; purchased ProQinase GmbH (Freiburg, Germany); host or cells: insect cells (Sf9)
Method in brief: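 Read-out is a TR-FRET 665/620 nm emission ratio from EDTA-stopped reactions detected with anti-pRB(pSer807/pSer811), Eu-labelled anti-mouse IgG and streptavidin-XL665, scaled between no-enzyme and uninhibited wells. Reaction: Sf9-expressed GST-CDK2/GST-CycE, 15 min compound preincubation, 10 μM ATP, 0.75 μM biotin-peptide, 25 min, 22° C., pH 8.0 Tris buffer.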

Row | pIC50 (HeLa) | pIC50 (CDK2/CycE) | SMILES
1 | 6.57 | < 4.70 | Cc1nsc(Nc2cnc(C(F)(F)F)cn2)c1C(=O)Nc1ccc(F)c(O[C@@H]2CCN(CC(F)(F)F)C2)c1 [Example 413, N-(4-Fluoro-3-{[(3R)-1-(2,2,2-trifluoroethyl)pyrrolidin-3-yl]oxy}phenyl)-3-methyl-5-{[5-(trifluoromethyl)pyrazin-2-yl]amino}-1,2-thiazole-4-carboxamide]
2 | 6.12 | < 4.70 | Cc1nsc(Nc2cnc(C(F)(F)F)cn2)c1C(=O)Nc1ccc(F)c(OC[C@H]2CCCN(CC(F)(F)F)C2)c1 [Example 419, N-(4-Fluoro-3-{[(3S)-1-(2,2,2-trifluoroethyl)piperidin-3-yl]methoxy}phenyl)-3-methyl-5-{[5-(trifluoromethyl)pyrazin-2-yl]amino}-1,2-thiazole-4-carboxamide]
3 | 6.59 | < 4.70 | CCCN1C[C@H](F)[C@H](Oc2ccc(NC(=O)c3c(C)nsc3Nc3cnc(C(F)(F)F)cn3)cn2)C1 [Example 408, N-(6-{[(3R,4S)-4-Fluoro-1-propylpyrrolidin-3-yl]oxy}pyridin-3-yl)-3-methyl-5-{[5-(trifluoromethyl)pyrazin-2-yl]amino}-1,2-thiazole-4-carboxamide]
4 | 5.89 | ≤ 4.70 | Cc1nsc(Nc2cnc(C(F)(F)F)cn2)c1C(=O)Nc1ccc(OCCNC(=O)C(F)(F)F)nc1 [Example 425, 3-Methyl-N-(6-{2-[(trifluoroacetyl)amino]ethoxy}pyridin-3-yl)-5-{[5-(trifluoro-methyl)pyrazin-2-yl]amino}-1,2-thiazole-4-carboxamide]
5 | 6.20 | < 4.70 | Cc1nsc(Nc2cnc(C(F)(F)F)cn2)c1C(=O)Nc1ccc(CCC2CCN(CCC(F)(F)F)CC2)nc1 [Example 420, 3-Methyl-5-{[5-(trifluoromethyl)pyrazin-2-yl]amino}-N-(6-{2-[1-(3,3,3-trifluoro-propyl)piperidin-4-yl]ethyl}pyridin-3-yl)-1,2-thiazole-4-carboxamide]
6 | 6.54 | < 4.70 | Cc1nsc(Nc2cnc(C(F)(F)F)cn2)c1C(=O)Nc1ccc(F)c(O[C@@H]2CCN(CCC(F)(F)F)C2)c1 [Example 414, N-(4-Fluoro-3-{[(3R)-1-(3,3,3-trifluoropropyl)pyrrolidin-3-yl]oxy}phenyl)-3-methyl-5-{[5-(trifluoromethyl)pyrazin-2-yl]amino}-1,2-thiazole-4-carboxamide]
7 | 5.92 | < 4.70 | Cc1nsc(Nc2cnc(C(F)(F)F)cn2)c1C(=O)Nc1ccc(F)c(OC[C@H]2CCCN(CCC(F)(F)F)C2)c1 [Example 418, N-(4-Fluoro-3-{[(3S)-1-(3,3,3-trifluoropropyl)piperidin-3-yl]methoxy}phenyl)-3-methyl-5-{[5-(trifluoromethyl)pyrazin-2-yl]amino}-1,2-thiazole-4-carboxamide]
8 | 6.59 | < 4.70 | Cc1nsc(Nc2cnc(C(F)(F)F)cn2)c1C(=O)Nc1ccc(F)c(O[C@@H]2CCN(CC(F)F)C2)c1 [Example 412, N-(3-{[(3R)-1-(2,2-Difluoroethyl)pyrrolidin-3-yl]oxy}-4-fluorophenyl)-3-methyl-5-{[5-(trifluoromethyl)pyrazin-2-yl]amino}-1,2-thiazole-4-carboxamide]
9 | 6.59 | < 4.70 | Cc1nsc(Nc2cnc(C(F)(F)F)cn2)c1C(=O)Nc1ccc(OCCN(C)C(=O)OC(C)(C)C)nc1 [Example 429, tert-Butyl methyl{2-[(5-{[(3-methyl-5-{[5-(trifluoromethyl)pyrazin-2-yl]amino}-1,2-thiazol-4-yl)carbonyl]amino}pyridin-2-yl)oxy]ethyl}carbannate]
10 | 6.42 | < 4.70 | CCCN1CCC(COc2ccc(NC(=O)c3c(C)nsc3Nc3cnc(C(F)(F)F)cn3)cn2)C(F)(F)C1 (stereo not drawn) [Example 394, N-{6-[(3,3-difluoro-1-propylpiperidin-4-yl)methoxy]pyridin-3-yl}-3-methyl-5-{[5-(trifluoromethyl)pyrazin-2-yl]amino}-1,2-thiazole-4-carboxamide]
11 | 6.27 | ≤ 4.70 | Cc1nsc(Nc2ccc(C#N)cn2)c1C(=O)Nc1ccc(OC2CCCN(CC(F)(F)F)C2)nc1 (stereo not drawn) [Example 40, 5-[(5-Cyanopyridin-2-yl)amino]-3-methyl-N-(6-{[1-(2,2,2-trifluoroethyl)piperidin-3-yl]oxy}pyridin-3-yl)-1,2-thiazole-4-carboxamide]
12 | 6.28 | – | CCN1CC[C@H](Oc2ccc(NC(=O)c3c(C)nsc3Nc3cnc(C(F)(F)F)cn3)cn2)[C@H](F)C1 [Example 424, N-(6-{[(3R,4S)-1-Ethyl-3-fluoropiperidin-4-yl]oxy}pyridin-3-yl)-3-methyl-5-{[5-(trifluoromethyl)pyrazin-2-yl]amino}-1,2-thiazole-4-carboxamide]
13 | 6.36 | – | Cc1nsc(Nc2ccc(C#N)cn2)c1C(=O)Nc1ccc(OC[C@H]2CCN(CC(F)(F)F)C2)nc1 [Example 405, 5-[(5-Cyanopyridin-2-yl)amino]-3-methyl-N-(6-{[(35)-1-(2,2,2-trifluoroethyl)pyrrolidin-3-yl]methoxy}pyridin-3-yl)-1,2-thiazole-4-carboxamide]

The next lines start with the compound.

Row | SMILES | pIC50 (HeLa) | pIC50 (CDK2/CycE)
14 | Cc1nsc(Nc2cnc3ccccc3n2)c1C(=O)Nc1cccc(C(=O)OC(C)(C)C)c1 [Example 49, tert-Butyl 3-({[3-methyl-5-(quinoxalin-2-ylamino)-1,2-thiazol-4-yl]carbonyl}amino)-benzoate] | 6.05 | ≤ 4.70
15 | Cc1nsc(Nc2ccc(C#N)cn2)c1C(=O)Nc1ccc(OC2CCCN(CCF)C2)nc1 (stereo not drawn) [Example 38, 5-[(5-Cyanopyridin-2-yl)amino]-N-(6-{[1-(2-fluoroethyl)piperidin-3-yl]oxy}pyridin-3-yl)-3-methyl-1,2-thiazole-4-carboxamide] | 5.09 | ≤ 4.70
16 | Cc1nsc(Nc2cnc3ccccc3n2)c1C(=O)Nc1cccc(NC(=O)C(F)(F)F)c1 [Example 432, 3-Methyl-5-(quinoxalin-2-ylamino)-N-{3-[(trifluoroacetyl)amino]phenyl}-1,2-thiazole-4-carboxamide] | < 5.00 | < 4.70
17 | COCCOc1ccc(NC(=O)c2c(C)nsc2Nc2nc3c(C(F)(F)F)cccc3s2)cc1F [Example 1, N-[3-Fluoro-4-(2-methoxyethoxy)phenyl]-3-methyl-5-{[4-(trifluoromethyl)-1,3-benzothiazol-2-yl]amino}-1,2-thiazole-4-carboxamide] | 6.24 | ≤ 4.70
18 | COC(=O)c1cccc(NC(=O)c2c(C)nsc2Nc2cnc3ccccc3n2)c1 [Example 50, Methyl 3-({[3-methyl-5-(quinoxalin-2-ylamino)-1,2-thiazol-4-yl]carbonyl}amino)-benzoate] | 5.72 | ≤ 4.70
19 | Cc1nsc(Nc2ccc(C#N)cn2)c1C(=O)Nc1ccc(Nc2ccc(F)c(F)c2)nc1 [Example 433, 5-[(5-Cyanopyridin-2-yl)amino]-N-{6-[(3,4-difluorophenyl)amino]pyridin-3-yl}-3-methyl-1,2-thiazole-4-carboxamide] | 5.27 | –
20 | Cc1nsc(Nc2cncc(C(F)(F)F)n2)c1C(=O)Nc1ccc(OCCN(C)C(=O)OC(C)(C)C)nc1 [Example 430, tert-Butyl methyl{2-[(5-{[(3-methyl-5-{[6-(trifluoromethyl)pyrazin-2-yl]amino}-1,2-thiazol-4-yl)carbonyl]amino}pyridin-2-yl)oxy]ethyl}carbannate] | 6.04 | < 4.70
21 | Cc1nsc(Nc2cnc3ccccc3n2)c1C(=O)Nc1cccc(C(=O)N2CCN(C(=O)OC(C)(C)C)CC2)c1 [Example 55, tert-Butyl 4-[3-({[3-methyl-5-(quinoxalin-2-ylamino)-1,2-thiazol-4-yl]carbonyl}amino)-benzoyl]piperazine-1-carboxylate] | 5.00 | ≤ 4.70
22 | Cc1nsc(Nc2cnc3ccccc3n2)c1C(=O)Nc1cccc(C(=O)NC(C)(C)C)c1 [Example 53, N-[3-(tert-Butylcarbamoyl)-phenyl]-3-methyl-5-(quinoxalin-2-ylamino)-1,2-thiazole-4-carboxamide] | 5.57 | ≤ 4.70
23 | Cc1nsc(Nc2cc(C#N)ccn2)c1C(=O)Nc1ccc(OCCCNC(=O)OC(C)(C)C)nc1 [Example 43, tert-Butyl [3-({5-[({5-[(4-cyanopyridin-2-yl)amino]-3-methyl-1,2-thiazol-4-yl}-carbonyl)amino]pyridin-2-yl}oxy)propyl]carbamate] | 5.00 | ≤ 4.70
24 | COCCOc1ccc(NC(=O)c2c(C)nsc2Nc2nc3c(C(F)(F)F)cccc3s2)cn1 [Example 3, N-[6-(2-Methoxyethoxy)pyridin-3-yl]-3-methyl-5-{[4-(trifluoromethyl)-1,3-benzo-thiazol-2-yl]amino}-1,2-thiazole-4-carboxamide] | 6.04 | –
25 | Cc1nsc(Nc2cnc3ccccc3n2)c1C(=O)Nc1cccc(C(=O)NCC(=O)OC(C)(C)C)c1 [Example 54, tert-Butyl N-[3-({[3-methyl-5-(quinoxalin-2-ylamino)-1,2-thiazol-4-yl]carbonyl}amino)-benzoyl]glycinate] | 5.00 | ≤ 4.70
26 | Cc1nsc(Nc2cnccn2)c1C(=O)Nc1ccc(OCCCN)nc1 [Example 48, N-[6-(3-Aminopropoxy)pyridin-3-yl]-3-methyl-5-(pyrazin-2-ylamino)-1,2-thiazole-4-carboxamide] | 5.00 | ≤ 4.70
